# Laboratory results from US20240390377A1, “COMPOSITION FOR THE PREVENTION OR TREATMENT OF NEURODEGENERATIVE OR MOTOR NEURON DISEASES COMPRISING HALOFUGINONE AS AN ACTIVE INGREDIENT” (CURAMYS CO., LTD., priority 2022, published 2024).
# Columns and labels:
# [1] = system: G93A mutant SOD1 transgenic mice; experiment: Range of motion (ROM) of the knee joint in ALS animal model; type: in vivo, mouse; conditions: 120 days old; compared to DMSO Non-TG group (DMSO TG significantly reduced)
# Description: As a control group, non-transgenic mice were injected intraperitoneally (i.p.) with vehicle (DMSO) in the same manner for the same period of time. Specifically, anatomical indicators were used to determine the knee extension angle. Manual knee joint ROM was measured at the end of disease age (120 days) using Random Two-line, a 2D angle analysis system. The mice of Example 6 were anesthetized with 1% isoflurane inhalation, followed by placing them on an acrylic plate and shaving the skin on their hind legs. The femur was fixed to the plate and a constant force extension moment was applied to the knee joint per mouse. Subsequently, markers were attached to greater trochanter, epicondyle of the knee, and lateral malleolus to obtain markers on the imaging. The angle between the axis of the femur (the greater trochanter to the lateral joint space of the knee) and the fibula (the lateral joint space of the knee to the lateral malleolus) was measured as the knee extension ROM. Sixteen mice in each group were analyzed, and the knees of non-transgenic mice injected with DMSO in the group on day 120 were used as controls. Specifically, halofuginone was administered to G93A mutant SOD1 mice in the same manner as described in Example 6, and ROM measurement of the knee joint was performed in the same manner as described in Example 10 (FIG. 8a). […]
# [2] = system: G93A mutant SOD1 mouse-derived fibroblasts; experiment: Western blot analysis of ALS animal model-derived fibroblasts; type: cell-based; conditions: low or high concentration halofuginone for 24 hours; elevation vs Non-TG fibroblasts (FIG. 5b)
# Text: Specifically, primary fibroblasts were isolated from skeletal muscle of 120-day-old non-transformed or G93A mutant SOD1 transgenic mice of Example 4. The excised tissue was placed on 100-mm culture dishes containing HBSS (Hanks' Balanced Salt Solution; Gibco, cat #14175095) and penicillin-streptomycin (Cat #15070-063, Thermo Fisher Scientific) without calcium and magnesium. Muscle tissue was cut on ice blocks. Then, the tissue was cut into 1 mm pieces and enzymatically reacted with 0.2% IV type collagenase (Sigma) at 37° C. for 1 hour. The enzymatic reaction was stopped by the addition of 10 ml of FBS (Gibco). The tissue mixture was centrifuged at 1,800 rpm at 4° C. for 5 min and resuspended with DMEM medium (Welgene) with 10% FBS. Cells were filtered through a 70 μm cell filter (BD Biosciences, San Jose, CA) and incubated in 0.2% gelatin-coated plates with DMEM medium with 10% FBS, 1% penicillin-streptomycin. Then, halofuginone was treated in the same manner as described in Example 1.
# Specifically, the lumbar spinal cord or knee joint of the mouse of Example 6 was separated and immediately frozen at −80° C. Each lumbar spinal cord or knee joint was then homogenized and chemically treated to obtain cells. The chemically treated cells, the C2C12 cells of Example 1 or the fibroblasts of Example 5 were dissolved in a RIPA buffer (Thermo, MA, USA) with a protease inhibitor and a phosphatase inhibitor (Roche, IN, USA) and incubated on ice for 30 minutes. After centrifugation of the lysate at 13,000 rpm at 4° C. for 20 min, insoluble substances were removed. Protein concentrations were measured by BCA analysis (Pierce Biotechnology). Equal volumes of cell lysate were loaded onto SDS-PAGE gels for electrophoresis, and transferred onto nitrocellulose membranes (Amersham Protran 0.2 um NC, Amersham Pharmacia Biotech, Piscataway, NJ, USA). The membranes were then blocked with 5% (w/v) skimmilk in 1×TBST for 1 h at room temperature. […] The membranes were then washed, briefly incubated with the SuperSignal West Pico Plus Chemical Substructure (Pierce Biotechnology) according to the manufacturer's procedure, and quantified with an image analyzer (Amersham Pharmacia Biotech, Piscataway, NJ, USA). β-actin was used as an internal control group. The concentration measurement of protein intensity was quantified using Image J (National Institutes of Health). […]
# [3] = system: G93A mutant SOD1 transgenic mice; experiment: Western blot analysis of knee joint tissue in ALS animal model; type: in vivo, mouse; conditions: 120 days old; compared to DMSO non-TG mice
# Description: As a control group, non-transgenic mice were injected intraperitoneally (i.p.) with vehicle (DMSO) in the same manner for the same period of time.
# Specifically, the lumbar spinal cord or knee joint of the mouse of Example 6 was separated and immediately frozen at −80° C. Each lumbar spinal cord or knee joint was then homogenized and chemically treated to obtain cells. The chemically treated cells, the C2C12 cells of Example 1 or the fibroblasts of Example 5 were dissolved in a RIPA buffer (Thermo, MA, USA) with a protease inhibitor and a phosphatase inhibitor (Roche, IN, USA) and incubated on ice for 30 minutes. After centrifugation of the lysate at 13,000 rpm at 4° C. for 20 min, insoluble substances were removed. Protein concentrations were measured by BCA analysis (Pierce Biotechnology). Equal volumes of cell lysate were loaded onto SDS-PAGE gels for electrophoresis, and transferred onto nitrocellulose membranes (Amersham Protran 0.2 um NC, Amersham Pharmacia Biotech, Piscataway, NJ, USA). The membranes were then blocked with 5% (w/v) skimmilk in 1×TBST for 1 h at room temperature. After blocking, anti-RB-actin antibody (1:5000; Santa Cruz, cat #sc47778), anti-Smad2 antibody (1:1000; Cell Signaling, cat #5339), anti-p-Smad2 antibody (1:1000; Cell Signaling, cat #3108), anti-TGF-β1 antibody (1:1000; Santa Cruz, cat #sc130348), anti-α-SMA antibody (1:10000; abcam cat #ab7817), anti-MyoD antibody (1:1000; cat #sc377460), anti-collagen|antibody (1:1000; abcam cat #ab21286), anti-cleaved caspase-3 antibody (1:1000; Cell Signaling, cat #9661), anti-bax antibody (1:500; Santa Cruz, cat #sc493), anti-bcl2 antibody (1:1000; Novus Biologics, cat #NB100-56098), anti-ChAT antibody (1:1000; Millipore, cat #AB144) were treated and incubated overnight at 4° C. Subsequently, membranes were washed several times with 1×TBST and incubated with horseradish peroxidase-conjugated secondary antibodies (anti-mouse, rabbit or goat, 1:5000; GE Healthcare) in blocking buffer for 1 h at room temperature (RT). The membranes were then washed, briefly incubated with the SuperSignal West Pico Plus Chemical Substructure (Pierce Biotechnology) according to the manufacturer's procedure, and quantified with an image analyzer (Amersham Pharmacia Biotech, Piscataway, NJ, USA). β-actin was used as an internal control group. The concentration measurement of protein intensity was quantified using Image J (National Institutes of Health).
# Specifically, halofuginone was administered to G93A mutant SOD1 mice in the same manner as described in Example 6, and ROM measurement of the knee joint was performed in the same manner as described in Example 10 (FIG. 8a). In addition, Western blot analysis was performed in the same manner as the method described in Example 12 using knee joint tissue to confirm p-Smad2, Smad2, TGF-β1, α-SMA, MyoD, and collagen I protein expression (FIG. 8b).
compound,measurement,setting,value
O=C(C[C@H]1NCCC[C@@H]1O)Cn1cnc2cc(Br)c(Cl)cc2c1=O (racemic) [halofuginone],range of motion (ROM) of the knee joint,[1],not changed
same,elevated Col-I protein expression,[2],attenuated
same,elevated TGF-β protein expression,[2],attenuated
same,elevated p-Smad2/Smad2 ratio,[2],attenuated
same,elevated α-SMA protein expression,[2],attenuated
same,Col-1 expression level in knee joint tissue,[3],rather reduced
same,MyoD expression level in knee joint tissue,[3],preserved similarly
same,TGF-β1 expression level in knee joint tissue,[3],preserved similarly
same,p-Smad2/Smad2 ratio in knee joint tissue,[3],preserved similarly
same,α-SMA expression level in knee joint tissue,[3],preserved similarly
